Data: ChEMBL document CHEMBL2074265, “Isolation and characterization of Caco-2 subclones expressing high levels of multidrug resistance protein efflux transporter” (Pharm Res, 2003)

Target: ATP-dependent translocase ABCB1 (Homo sapiens, UniProt P08183)
Sequence (P08183 whole entry): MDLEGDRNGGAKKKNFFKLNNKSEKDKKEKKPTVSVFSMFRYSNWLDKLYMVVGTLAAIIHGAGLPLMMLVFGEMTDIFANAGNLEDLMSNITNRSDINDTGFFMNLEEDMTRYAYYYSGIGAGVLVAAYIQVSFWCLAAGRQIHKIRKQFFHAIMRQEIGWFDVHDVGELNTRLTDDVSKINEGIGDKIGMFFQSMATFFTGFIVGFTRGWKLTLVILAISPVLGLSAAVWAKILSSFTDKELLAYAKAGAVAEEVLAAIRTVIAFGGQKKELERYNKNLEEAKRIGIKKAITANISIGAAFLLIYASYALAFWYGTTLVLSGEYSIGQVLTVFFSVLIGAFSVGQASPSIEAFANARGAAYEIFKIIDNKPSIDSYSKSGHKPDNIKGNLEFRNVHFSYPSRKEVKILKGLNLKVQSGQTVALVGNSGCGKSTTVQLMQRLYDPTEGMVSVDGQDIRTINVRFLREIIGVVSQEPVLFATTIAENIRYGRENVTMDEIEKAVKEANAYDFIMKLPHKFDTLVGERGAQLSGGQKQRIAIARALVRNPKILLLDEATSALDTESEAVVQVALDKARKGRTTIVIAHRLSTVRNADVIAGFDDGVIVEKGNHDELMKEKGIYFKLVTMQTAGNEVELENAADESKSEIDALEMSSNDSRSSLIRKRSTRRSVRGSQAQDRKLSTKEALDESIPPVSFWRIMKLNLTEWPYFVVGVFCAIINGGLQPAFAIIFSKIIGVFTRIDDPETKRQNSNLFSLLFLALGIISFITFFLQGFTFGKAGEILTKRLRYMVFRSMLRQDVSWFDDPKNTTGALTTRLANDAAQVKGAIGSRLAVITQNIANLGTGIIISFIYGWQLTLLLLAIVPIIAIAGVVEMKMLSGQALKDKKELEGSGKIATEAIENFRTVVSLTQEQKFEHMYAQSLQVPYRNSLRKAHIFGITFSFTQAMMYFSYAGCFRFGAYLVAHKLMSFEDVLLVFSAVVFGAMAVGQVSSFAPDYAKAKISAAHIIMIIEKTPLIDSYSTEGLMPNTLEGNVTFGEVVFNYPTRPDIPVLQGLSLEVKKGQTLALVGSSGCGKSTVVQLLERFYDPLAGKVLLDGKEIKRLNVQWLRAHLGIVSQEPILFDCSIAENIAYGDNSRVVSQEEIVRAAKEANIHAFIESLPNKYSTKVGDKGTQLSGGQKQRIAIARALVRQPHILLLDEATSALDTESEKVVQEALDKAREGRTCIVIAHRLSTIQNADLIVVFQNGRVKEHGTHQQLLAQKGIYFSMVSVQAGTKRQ
Description: TP_TRANSPORTER: transepithelial transport of digoxin (basal to apical) in Caco-2 cells

- Ki: 2310 nM
SMILES: COC(=O)[C@H]1[C@H]2C[C@@H]3c4[nH]c5cc(OC)ccc5c4CCN3C[C@H]2C[C@@H](OC(=O)c2cc(OC)c(OC)c(OC)c2)[C@@H]1OC [RESERPINE]
